Reference: US20190262453A1, “DESIGN AND COMPOSITION OF CELL-STABILIZED PHARMACEUTICAL FORMULATIONS” (THE REGENTS OF THE UNIVERSITY OF MICHIGAN, priority 2016, published 2019)
Read-outs that look alike come from different tables or passages of the source.

Experiments:
peritoneal macrophages = experiment: Peritoneal lavage: cell counts and CLDI-containing cells; type: in vivo, Mice; details: PBS-CFZ fed group, peritoneal cavity
Procedure: In order to deplete tissue macrophages, mice were treated with liposomes containing either 7 mg/mL clodronate or phosphate-buffered saline (PBS) (FormuMax Scientific Inc., Sunnyvale, Calif.) for up to six weeks. Liposomes were injected IP to eliminate macrophages of the liver, spleen, and peritoneal cavity. Mice were initially treated with 200 μL of liposomes, followed by 100 μL injections twice per week to ensure continual depletion of macrophages. Mice were fed CFZ or a control diet continuously for a four week period. Following two weeks of feeding, liposome treatment began for two weeks. After completing four weeks of feeding and two weeks of liposome treatment, the mice were sacrificed and tissues were collected. Following euthanasia, a small incision was made in the lower abdomen. […] The peritoneal lavage was centrifuged for 10 min at 400×g, 4° C,and then resuspended in DMEM media (Life Technologies). The cells were then plated onto 4 or 8 chamber coverglass (#1.5, Lab-Tek II, Nunc, Rochester, N.Y.) for imaging. The cells were allowed to attach overnight and then washed with media.

RAW264.7 cells [1] = tested on: RAW264.7 cells
Procedure: Drug Uptake. Measurement of CFZ uptake in RAW264.7 cells was performed using a modified absorbance spectroscopy method using 9 M H2SO4 (pH<<0.1) to digest the entire cell population and extract CFZ from the cells. Cells at a very high seeding density of 50,000 cells/well, grown in a 96 well tissue culture plate in 280 μl/well of DMEM +10% FBS +1% P/S (growth media), were pre-incubated with varying concentrations of BafA1 (0-4 nM) and NPPB (0-200 μM) for 4 hours before adding CFZ dissolved in DMSO such that final concentrations of CFZ were in the range of 0-8 μM. Post 4 and 24 hours exposure to CFZ, growth media was aspirated out and the cells were washed with PBS twice before adding 100 μl/well of 9 M H2SO4 and incubated at room temperature for 30 minutes before spectrophotometric quantification using a Synergy 2 plate reader (BioTek, Winooski, Vt.) at 540 nm (Abs540) and 750 nm (Abs750) (for background). Standards were prepared on the same plate by adding 100 μl/well pre-determined standards of CFZ. Total uptake was reported as total picomoles of intracellular drug as measured and calculated using the standard curve.
Cell Viability Measurement: Comparing Wet Lab Experimental Study with Simulation Study. In order to compare wet lab experimental cell viability determination with that of model simulation, the rate at which drug accumulation occurred in the experimental study was calculated. […] Then, cell viability was calculated using the following equation: […]
In vitro analysis (CFZ accumulation). […] Furthermore, the following comparisons are reported as a percentage (%) of CFZ accumulation measured in uninhibited cells under the various tested CFZ concentrations and 8 μM CFZ concentration, in the wet lab experimental and simulation studies, respectively.

RAW264.7 cells [2] = experiment: Cell viability (XTT assay); type: cell-based
Procedure: Cell Viability. Viability of RAW264.7 cells were performed using Cell Proliferation Kit II (XTT) (Roche Applied Science, Mannheim, Germany, Cat. No. 11465015001) using the manufacturer's instructions. […] Post 24 hours exposure to CFZ, the cells were incubated with the yellow XTT solution (final concentration 0.3 mg/ml) for 4 h. […] An increase in number of living cells directly correlates to the amount of orange formazan formed, as monitored by the solution absorbance at 500 nm (Abs500). The following formula was used to determine viability of drug and inhibitor treated cells using untreated cells (blank) as a control—Cell Viability=(Abs500, treated—Abs700,treated)/(Abs500, blank—Abs700,blank).

[3] = Mouse body weight and temperature during macrophage depletion and CFZ feeding; type: in vivo; details: mice, final measurement; four weeks diet, two weeks liposomes
Procedure: Mice (4 week old, male C57B16) were purchased from the Jackson Laboratory (Bar Harbor, Me.) and acclimatized for 1 week in a specific-pathogen-free animal facility. Clofazimine (CFZ) (C8895; Sigma, St. Louis, Mo.) was dissolved in sesame oil (Shirakiku, Japan) to achieve a concentration of 3 mg/ml, which was mixed with Powdered Lab Diet 5001 (PMI International, Inc., St. Louis, Mo.) to produce a 0.03% drug to powdered feed mix, and orally administered ad libitum for 4 weeks. A corresponding amount of sesame oil was mixed with chow for vehicle treatment (control). Mice were euthanized via carbon dioxide asphyxiation and exsanguination. Animal care was provided by the University of Michigan's Unit for Laboratory Animal Medicine (ULAM).
In order to deplete tissue macrophages, mice were treated with liposomes containing either 7 mg/mL clodronate or phosphate-buffered saline (PBS) (FormuMax Scientific Inc., Sunnyvale, Calif.) for up to six weeks. Liposomes were injected IP to eliminate macrophages of the liver, spleen, and peritoneal cavity. Mice were initially treated with 200 μL of liposomes, followed by 100 μL injections twice per week to ensure continual depletion of macrophages. […]
During the course of the experiment, the body weight and temperature of the mice were measured daily to track the impact of the loss of drug-sequestering cells on the general health of the mouse. […]

[4] = cited from earlier work

With `CC(C)N=c1cc2n(-c3ccc(Cl)cc3)c3ccccc3nc-2cc1Nc1ccc(Cl)cc1` [CFZ, 3-(p-chloroanilino)-10-(p-chlorophenyl)-2, 10-dihydro-2-isopropyliminophenazine] the “macrophages containing at least one intracellular CLDI” value (peritoneal macrophages) was “approximately 50%”, the “CFZ accumulation relative to uninhibited cells” value (RAW264.7 cells [1]; 2 nM BafA1, initial CFZ=4 μM, 4 hours) was 80±13% and the “CFZ accumulation relative to uninhibited cells” value (RAW264.7 cells [1]; 2 nM BafA1, initial CFZ=4 μM, 24 hours) was 67±12%. For the same molecule, the “CFZ accumulation relative to uninhibited cells” value (RAW264.7 cells [1]; 2 nM BafA1, initial CFZ=6 μM, 4 hours) was 75±11%, the “CFZ accumulation relative to uninhibited cells” value (RAW264.7 cells [1]; 2 nM BafA1, initial CFZ=6 μM, 24 hours) was 71±19% and the “CFZ accumulation relative to uninhibited cells” value (RAW264.7 cells [1]; 2 nM BafA1, initial CFZ=8 μM, 4 hours) was 63±9%. For the same molecule, the “CFZ accumulation relative to uninhibited cells” value (RAW264.7 cells [1]; 2 nM BafA1, initial CFZ=8 μM, 24 hours) was 67±12%, the “CFZ accumulation relative to uninhibited cells” value (RAW264.7 cells [1]; BafA1=4 nM, initial CFZ=4 μM, 4 hours) was 29±4% and the “CFZ accumulation relative to uninhibited cells” value (RAW264.7 cells [1]; BafA1=4 nM, initial CFZ=4 μM, 24 hours) was 42±6%. For the same molecule, the “CFZ accumulation relative to uninhibited cells” value (RAW264.7 cells [1]; BafA1=4 nM, initial CFZ=6 μM, 4 hours) was 47±9%, the “CFZ accumulation relative to uninhibited cells” value (RAW264.7 cells [1]; BafA1=4 nM, initial CFZ=6 μM, 24 hours) was 38±9% and the “CFZ accumulation relative to uninhibited cells” value (RAW264.7 cells [1]; BafA1=4 nM, initial CFZ=8 μM, 4 hours) was 43±8%. For the same molecule, the “CFZ accumulation relative to uninhibited cells” value (RAW264.7 cells [1]; BafA1=4 nM, initial CFZ=8 μM, 24 hours) was 26±4%, the “CFZ accumulation relative to uninhibited cells” value (RAW264.7 cells [1]; NPPB=50 μM, CFZ=4 μM, 24 hours) was 73±10% and the “CFZ accumulation relative to uninhibited cells” value (RAW264.7 cells [1]; NPPB=50 μM, CFZ=6 μM, 24 hours) was 73±17%. For the same molecule, the “CFZ accumulation relative to uninhibited cells” value (RAW264.7 cells [1]; NPPB=50 μM, CFZ=8 μM, 24 hours) was 72±10%, the “CFZ accumulation relative to uninhibited cells” value (RAW264.7 cells [1]; NPPB=100 μM, CFZ=4 μM, 24 hours) was 46±5% and the “CFZ accumulation relative to uninhibited cells” value (RAW264.7 cells [1]; NPPB=100 μM, CFZ=6 μM, 24 hours) was 41±12%. For the same molecule, the “CFZ accumulation relative to uninhibited cells” value (RAW264.7 cells [1]; NPPB=100 μM, CFZ=8 μM, 24 hours) was 41±7%, the “CFZ accumulation relative to uninhibited cells” value (RAW264.7 cells [1]; NPPB=200 μM, CFZ=4 μM, 24 hours) was 30±7% and the “CFZ accumulation relative to uninhibited cells” value (RAW264.7 cells [1]; NPPB=200 μM, CFZ=6 μM, 24 hours) was 32±12%. For the same molecule, the “CFZ accumulation relative to uninhibited cells” value (RAW264.7 cells [1]; NPPB=200 μM, CFZ=8 μM, 24 hours) was 37±7%, the “rate of drug accumulation” value (RAW264.7 cells [1]; mouse, 8 µM) was ~0.01 picomol/cell/day and the “change in CFZ accumulation in inhibited relative to uninhibited cells” value (RAW264.7 cells [1]; pre-incubated with various concentrations of NPPB, CFZ for 4 hours at varying concentrations) was “no significant change”. For the same molecule, the cell viability (RAW264.7 cells [2]; BafA1=4 nM and CFZ=10 μM, n=6) was 76±13%, the cell viability (RAW264.7 cells [2]; BafA1=6 nM, all concentrations of CFZ) was 48-85% and the cell viability (RAW264.7 cells [2]; BafA1=8 nM, all concentrations of CFZ) was 33-77%. The cell viability (RAW264.7 cells [2]; exposed to NPPB (all tested concentrations) prior to varying concentrations of CFZ) was > 92%, the “effect on cell viability” value (RAW264.7 cells [2]; incubation of the substance alone, RAW264.7, XTT) was “no significant effect” and the cell viability (RAW264.7 cells [2]; up to 4 nM BafA1 prior to up to 8 μM CFZ) was > 91%. The “Average Body Temperature (n = 3-4)” value [3] was 34.3 ± 0.3 °C, the “Average Body Weight (n = 3-4)” value [3] was 25.7 ± 0.8 g and the “pharmacologically-relevant concentrations measured in serum” value [4] was 1 to 20 μM.
